PubChem BioAssay (NCI)
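Cells were grown in 96-well plates and exposed to each compound for 48 hours at five concentrations; endpoints were interpolated linearly between bracketing concentrations, or set to the highest concentration if not reached. Definition used: TGI = concentration required for complete inhibition of growth.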

What was measured:
Assay in all cases: NCI tumour cell line growth inhibition, 48 h
[1] = system: A549 NSCLC
[2] = system: CAKI-1 renal
[3] = system: HCC-2998 colon
[4] = system: HCT-116 colon
[5] = system: HL-60(TB) leukemia
[6] = system: LOX IMVI melanoma
[7] = system: MALME-3M melanoma
[8] = system: OVCAR-3 ovarian
[9] = system: RXF 393 renal
[10] = system: SK-MEL-2 melanoma
[11] = system: U251 CNS
[12] = system: UACC-257 melanoma
[13] = system: EKVX NSCLC
[14] = system: KM12 colon
[15] = system: MDA-N
[16] = system: NCI/ADR-RES ovarian

Compound: COc1ccc(/C=C/c2nc(=S)[nH][nH]2)cc1OC
- TGI [1]: > 100 µM
- TGI [2]: > 100 µM
- TGI [3]: > 100 µM
- TGI [4]: > 100 µM
- TGI [5]: > 100 µM
- TGI [6]: > 100 µM
- TGI [7]: > 100 µM
- TGI [8]: > 100 µM
- TGI [9]: > 100 µM
- TGI [10]: > 100 µM
- TGI [11]: > 100 µM
- TGI [12]: > 100 µM

Compound: CC(=O)OCC1OC(n2c(O)c(N=NC(N)=S)c3ccc([N+](=O)[O-])cc32)C(OC(C)=O)C1OC(C)=O (stereo unspecified)
- TGI [1]: > 100 µM
- TGI [2]: > 100 µM
- TGI [13]: > 100 µM
- TGI [3]: 65.6 µM
- TGI [4]: 29.5 µM
- TGI [5]: 62.7 µM
- TGI [14]: > 100 µM
- TGI [6]: 43.1 µM
- TGI [7]: > 100 µM
- TGI [8]: 63.9 µM
- TGI [9]: 45.9 µM
- TGI [10]: 47.2 µM
- TGI [11]: 87.6 µM
- TGI [12]: > 100 µM

Compound: COC(=O)/C(=N\N)C(C(=O)C(=O)Nc1nc(=S)[nH][nH]1)c1nc2ccc([N+](=O)[O-])cc2[nH]c1=O (stereo unspecified)
- TGI [1]: > 100 µM
- TGI [2]: > 100 µM
- TGI [13]: > 100 µM
- TGI [3]: > 100 µM
- TGI [4]: > 100 µM
- TGI [5]: > 100 µM
- TGI [14]: > 100 µM
- TGI [6]: > 100 µM
- TGI [7]: > 100 µM
- TGI [8]: > 100 µM
- TGI [9]: > 100 µM
- TGI [10]: > 100 µM
- TGI [11]: > 100 µM
- TGI [12]: > 100 µM

Compound: O=C1C2C3C=C4c5ccccc5N(c5ccccc5)C4([C@@H]2C(=O)N1c1ccc(F)cc1)[C@H]1C(=O)N(c2ccc(F)cc2)C(=O)[C@@H]31 (stereo partly specified)
- TGI [1]: > 100 µM
- TGI [13]: > 100 µM
- TGI [3]: > 100 µM
- TGI [5]: > 100 µM
- TGI [14]: > 100 µM
- TGI [6]: > 100 µM
- TGI [7]: > 100 µM
- TGI [8]: > 100 µM
- TGI [9]: > 100 µM
- TGI [10]: > 100 µM
- TGI [11]: > 100 µM
- TGI [12]: > 100 µM

Compound: COc1cc2c(cc1OC)[C@H]1C(COC(=O)Nc3ccccc3)CN1CC2 (stereo partly specified)
- TGI [1]: > 100 µM
- TGI [2]: > 100 µM
- TGI [3]: > 100 µM
- TGI [4]: > 100 µM
- TGI [5]: > 100 µM
- TGI [14]: > 100 µM
- TGI [6]: > 100 µM
- TGI [7]: > 100 µM
- TGI [8]: > 100 µM
- TGI [9]: > 100 µM
- TGI [10]: > 100 µM
- TGI [11]: > 100 µM

Compound: C[C@H]1S[C@H](c2c(F)cccc2F)n2c1nc1ccccc12
- TGI [1]: > 100 µM
- TGI [2]: > 100 µM
- TGI [13]: > 100 µM
- TGI [3]: > 100 µM
- TGI [4]: > 100 µM
- TGI [14]: > 100 µM
- TGI [7]: > 100 µM
- TGI [15]: > 100 µM
- TGI [16]: > 100 µM
- TGI [8]: > 100 µM
- TGI [9]: > 100 µM
- TGI [10]: > 100 µM
- TGI [11]: > 100 µM
- TGI [12]: > 100 µM

Compound: COC1(C)CNCC(C)(C)NC(=O)C(C)(OC)CNCC(C)(C)NC1=O (stereo unspecified)
- TGI [1]: > 100 µM
- TGI [2]: > 100 µM
- TGI [13]: > 100 µM
- TGI [3]: > 100 µM
- TGI [4]: > 100 µM
- TGI [5]: > 100 µM
- TGI [14]: > 100 µM
- TGI [6]: > 100 µM
- TGI [7]: > 100 µM
- TGI [8]: > 100 µM
- TGI [9]: > 100 µM
- TGI [10]: > 100 µM
- TGI [11]: > 100 µM
- TGI [12]: > 100 µM

Compound: CC1OC(CC2C=CCc3c(O)c4c(c(O)c32)C(=O)c2ccccc2C4=O)CC(NC(=O)C(F)(F)F)C1O (stereo unspecified)
- TGI [2]: 20.7 µM
- TGI [13]: 25.7 µM
- TGI [3]: > 100 µM
- TGI [4]: 11.4 µM
- TGI [5]: 26.7 µM
- TGI [14]: 61.4 µM
- TGI [6]: 20.6 µM
- TGI [7]: 10.1 µM
- TGI [8]: 19.2 µM
- TGI [9]: 7.77 µM
- TGI [10]: 30.2 µM
- TGI [11]: 15.4 µM
- TGI [12]: 26.8 µM

Compound: COc1nc2c(c(=O)[nH]1)N=C(c1ccc(Cl)cc1)CC(c1ccccc1)N2 (stereo unspecified)
- TGI [1]: > 100 µM
- TGI [2]: 66.2 µM
- TGI [13]: > 100 µM
- TGI [3]: > 100 µM
- TGI [4]: > 100 µM
- TGI [14]: > 100 µM
- TGI [6]: 57.1 µM
- TGI [15]: 76.8 µM
- TGI [16]: 75.4 µM
- TGI [8]: > 100 µM
- TGI [9]: 61.4 µM
- TGI [10]: 60.1 µM
- TGI [11]: > 100 µM
- TGI [12]: > 100 µM

Compound: COc1cc2cnc3c4cc(OC)c(OC(C)C)cc4ccc3c2cc1OC
- TGI [1]: > 100 µM
- TGI [2]: > 100 µM
- TGI [13]: > 100 µM
- TGI [3]: > 100 µM
- TGI [4]: > 100 µM
- TGI [5]: > 100 µM
- TGI [14]: > 100 µM
- TGI [6]: > 100 µM
- TGI [7]: > 100 µM
- TGI [8]: > 100 µM
- TGI [9]: > 100 µM
- TGI [10]: > 100 µM
- TGI [11]: > 100 µM
- TGI [12]: > 100 µM

Compound: C/C=C1/C(=Cc2[nH]c(C=c3[nH]/c(=C/C4=NC(=O)C(CC)=C4C)c(C)c3CCC(=O)O)c(CCC(=O)O)c2C)NC(=O)C1C (stereo unspecified)
- TGI [1]: 27 µM
- TGI [2]: > 50 µM
- TGI [13]: > 50 µM
- TGI [3]: > 50 µM
- TGI [4]: > 50 µM
- TGI [5]: > 50 µM
- TGI [14]: > 50 µM
- TGI [6]: 2.61 µM
- TGI [7]: 31.9 µM
- TGI [8]: > 50 µM
- TGI [9]: > 50 µM
- TGI [10]: 20.3 µM
- TGI [11]: > 50 µM
- TGI [12]: 24.9 µM

Compound: CC(=O)OCC1=CC2CCC3C(C)(CCC[C@]3(C)COC(C)=O)C23CC[C@H]1C3 (stereo partly specified)
- TGI [1]: > 100 µM
- TGI [2]: > 100 µM
- TGI [13]: > 100 µM
- TGI [3]: 86.3 µM
- TGI [4]: > 100 µM
- TGI [5]: 53.6 µM
- TGI [14]: > 100 µM
- TGI [6]: 62.3 µM
- TGI [7]: > 100 µM
- TGI [8]: > 100 µM
- TGI [9]: 93 µM
- TGI [10]: > 100 µM
- TGI [11]: > 100 µM
- TGI [12]: > 100 µM

Compound: CC1N=C(c2ccccc2)OC1=O (stereo unspecified)
- TGI [1]: > 100 µM
- TGI [2]: > 100 µM
- TGI [13]: > 100 µM
- TGI [4]: > 100 µM
- TGI [14]: > 100 µM
- TGI [6]: > 100 µM
- TGI [7]: > 100 µM
- TGI [15]: > 100 µM
- TGI [16]: > 100 µM
- TGI [8]: > 100 µM
- TGI [10]: > 100 µM
- TGI [11]: > 100 µM
- TGI [12]: > 100 µM

Compound: Cc1ccc(O)c(C(c2cc(C)ccc2O)c2cc([N+](=O)[O-])ccc2O)c1
- TGI [1]: 31.2 µM
- TGI [2]: 24.8 µM
- TGI [13]: 32.3 µM
- TGI [3]: 25.5 µM
- TGI [4]: 56.1 µM
- TGI [5]: 11.7 µM
- TGI [14]: 21.2 µM
- TGI [6]: > 100 µM
- TGI [16]: 66.8 µM
- TGI [8]: 25.4 µM
- TGI [9]: 54 µM
- TGI [10]: 28.2 µM
- TGI [11]: 46.4 µM
- TGI [12]: 37.6 µM

Compound: CCC(=O)CCC1=Nc2nnc(CCCCc3nnc4n3C(=O)C(CCC(=O)CC)=N4)n2C1=O
- TGI [1]: > 100 µM
- TGI [2]: > 100 µM
- TGI [13]: > 100 µM
- TGI [3]: > 100 µM
- TGI [5]: > 100 µM
- TGI [14]: > 100 µM
- TGI [6]: > 100 µM
- TGI [7]: > 100 µM
- TGI [8]: > 100 µM
- TGI [9]: > 100 µM
- TGI [10]: > 100 µM
- TGI [12]: > 100 µM

Compound: CCOc1nc2sc3c(c2c(=O)n1CCSSCCn1c(OCC)nc2sc4c(c2c1=O)CCCC4)CCCC3
- TGI [1]: > 100 µM
- TGI [2]: > 100 µM
- TGI [13]: > 100 µM
- TGI [3]: > 100 µM
- TGI [4]: > 100 µM
- TGI [14]: > 100 µM
- TGI [6]: > 100 µM
- TGI [7]: > 100 µM
- TGI [15]: > 100 µM
- TGI [16]: > 100 µM
- TGI [8]: > 100 µM
- TGI [10]: > 100 µM
- TGI [11]: > 100 µM
- TGI [12]: > 100 µM

Compound: CCCC(C(=O)Nc1cccc2[nH]cnc12)C(=O)OCC (stereo unspecified)
- TGI [1]: > 100 µM
- TGI [13]: > 100 µM
- TGI [3]: > 100 µM
- TGI [4]: > 100 µM
- TGI [5]: > 100 µM
- TGI [14]: > 100 µM
- TGI [6]: > 100 µM
- TGI [16]: > 100 µM
- TGI [8]: > 100 µM
- TGI [10]: > 100 µM
- TGI [11]: > 100 µM
- TGI [12]: > 100 µM
